Reference: ChEMBL document CHEMBL4732175, “Design and Characterization of a Pyridone-Containing EZH2 Inhibitor Phosphate Prodrug” (J Med Chem, 2021)
In brackets after ≈: the same amount, converted by molar mass. Values belong to the molecule of their own block, whether it stands above or below them. Activity calls are given as the source filed them. No cut-off for these calls is given here.

Legend:
[1] = biological target: T1, Histone-lysine N-methyltransferase EZH2 (Homo sapiens, UniProt Q15910); assay: Inhibition of wild type EZH2 (unknown origin)
T1 sequence (Q15910 whole entry): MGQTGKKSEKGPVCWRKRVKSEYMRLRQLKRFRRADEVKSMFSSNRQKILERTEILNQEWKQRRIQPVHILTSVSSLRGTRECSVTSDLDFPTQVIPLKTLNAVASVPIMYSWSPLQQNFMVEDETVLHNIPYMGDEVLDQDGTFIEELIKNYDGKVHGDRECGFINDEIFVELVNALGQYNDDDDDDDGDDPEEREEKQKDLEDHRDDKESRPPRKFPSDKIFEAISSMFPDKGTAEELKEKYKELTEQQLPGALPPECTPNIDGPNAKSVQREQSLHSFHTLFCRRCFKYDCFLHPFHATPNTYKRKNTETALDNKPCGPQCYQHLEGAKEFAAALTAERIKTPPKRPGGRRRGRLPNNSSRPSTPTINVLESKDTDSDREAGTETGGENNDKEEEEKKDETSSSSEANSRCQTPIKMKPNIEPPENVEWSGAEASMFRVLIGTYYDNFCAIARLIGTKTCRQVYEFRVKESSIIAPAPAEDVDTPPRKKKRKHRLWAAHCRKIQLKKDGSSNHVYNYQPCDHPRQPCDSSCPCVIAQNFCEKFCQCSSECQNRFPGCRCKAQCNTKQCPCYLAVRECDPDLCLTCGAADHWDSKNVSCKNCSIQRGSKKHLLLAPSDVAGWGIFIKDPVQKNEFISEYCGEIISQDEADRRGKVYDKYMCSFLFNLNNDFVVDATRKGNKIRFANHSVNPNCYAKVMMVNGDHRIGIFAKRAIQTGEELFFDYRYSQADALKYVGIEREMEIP

[2] = Distribution coefficient, log D of compound; assay type: physicochemical; settings: octanol/water
[3] = Apparent solubility of the compound; assay type: physicochemical
[4] = Thermodynamic solubility in 0.5% MC/0.1% polysorbate 80 aqueous vehicle; assay type: physicochemical; settings: read-out: Therm_solubility
KARPAS-422 [5] = assay: Antitumor activity against human KARPAS-422 cells xenografted in mouse assessed as inhibition of tumor growth inhibition at 240 mg/kg/day dosed via SEDDS formulation for 30 days; settings: KARPAS-422, 720 h, read-out: TGI
[6] = biological target: T1, Histone-lysine N-methyltransferase EZH2; assay: Inhibition of wild type EZH2 in human KARPAS-422 cells assessed as effect on H3K27Me3 levels; assay type: cell-based
[7] = Drug level in mouse plasma at 120 mg/kg, po BID dosed using SEDDS formulation; assay type: ADME, organism-based; settings: in vivo
[8] = Intrinsic clearance in human liver microsomes; assay type: ADME, Microsome; settings: read-out: CLH
[9] = biological target: Histone-lysine N-methyltransferase EZH2 (Homo sapiens, UniProt Q15910, Y641N); assay: Inhibition of wild type EZH2 Y641N mutant (unknown origin)
Chain of Histone-lysine N-methyltransferase EZH2 (Homo sapiens, UniProt Q15910, Y641N) (Q15910 whole entry Y641N): as the sequence (Q15910 whole entry) above, with Y641N counted along it

[10] = Permeability in MDCK cells; assay type: ADME, cell-based, Canis lupus familiaris; settings: dog, read-out: permeability
KARPAS-422 [11] = assay: Inhibition of cell proliferation in human KARPAS-422 cells; assay type: functional, cell-based
[12] = Chemical stability in simulated intestinal fluid at pH 6.8; assay type: physicochemical
[13] = Chemical stability in simulated gastric fluid at pH 1.2; assay type: physicochemical
KARPAS-422 [14] = assay: Antitumor activity against human KARPAS-422 cells xenografted in mouse assessed as inhibition of tumor growth inhibition at 240 mg/kg/day dosed via MC formulation for 30 days; assay type: functional; settings: KARPAS-422, 720 h, time 30 day, read-out: TGI
KARPAS-422 [15] = assay: Antitumor activity against human KARPAS-422 cells xenografted in mouse assessed as inhibition of tumor growth inhibition at 120 mg/kg/day dosed via MC formulation for 30 days; assay type: functional; settings: KARPAS-422, 720 h, time 30 day, read-out: TGI
[16] = Drug metabolism in rat plasma assessed as 5,8-dichloro-2-((4,6-dimethyl-2-oxo-1,2-dihydropyridin-3-yl)methyl)-7-(3,5-dimethylisoxazol-4-yl)-3,4-dihydroisoquinolin-1(2H)-one formation at 2000 mg/kg/day, po; assay type: ADME, organism-based; settings: in vivo
[17] = Drug level in rat plasma at 2000 mg/kg/day, po; assay type: ADME, organism-based; settings: in vivo
[18] = Drug level in mouse plasma at 30 to 120 mg/kg, po BID; assay type: ADME, organism-based; settings: in vivo, dose 30-120 mg/kg
KARPAS-422 [19] = assay: Antitumor activity against human KARPAS-422 cells xenografted in mouse assessed as inhibition of tumor growth inhibition at 60 to 240 mg/kg/day dosed via MC formulation for 30 days; assay type: functional, organism-based; settings: dose 60-240 mg/kg/day, time 30.0 day
KARPAS-422 [20] = assay: Antitumor activity against human KARPAS-422 cells xenografted in mouse assessed as inhibition of tumor growth inhibition at 147 mg/kg/day dosed via MC formulation for 30 days and measured up to 40 days after dosing cessation; assay type: functional, organism-based; settings: time 30.0 day
KARPAS-422 [21] = assay: Antitumor activity against human KARPAS-422 cells xenografted in mouse assessed as inhibition of tumor growth inhibition at 60 mg/kg/day dosed via MC formulation for 30 days; assay type: functional; settings: KARPAS-422, 720 h, time 30 day, read-out: TGI
[22] = Solubility in 0.5% MC formulation contained 1 equivalent of NaOH; assay type: physicochemical; settings: 0.5% MC formulation containing 1 equivalent of NaOH
[23] = Drug metabolism in mouse plasma assessed as 5,8-dichloro-2-((4,6-dimethyl-2-oxo-1,2-dihydropyridin-3-yl)methyl)-7-(3,5-dimethylisoxazol-4-yl)-3,4-dihydroisoquinolin-1(2H)-one formation at 30 to 120 mg/kg, po BID; assay type: ADME, organism-based; settings: in vivo, dose 30-120 mg/kg
KARPAS-422 [24] = assay: Antitumor activity against human KARPAS-422 cells xenografted in mouse assessed as inhibition of tumor growth inhibition at 240 mg/kg/day dosed via SEDDS formulation for 30 days; assay type: functional, organism-based; settings: time 30.0 day

Ki [1]: 1 nM
logD [2]: 3.1
solubility [3]: 140 µM (≈ 62.5 µg/mL)
Compound: Cc1cc(C)c(CN2CCc3c(Cl)cc(-c4c(C)noc4C)c(Cl)c3C2=O)c(=O)[nH]1

Ki [1]: 2 nM
solubility thermodynamic [4]: 41 µM (≈ 20.1 µg/mL)
IC50 [6]: 30 nM
logD [2]: 2.4
Drug uptake [7]: Active
microsomal CLint [8]: 27.8 µL/min/mg
Ki [9]: 7 nM
Papp [10]: 9 ×10⁻⁶ cm/s
solubility [3]: 338 µM (≈ 166 µg/mL)
IC50 (KARPAS-422 [11]): 36 nM
Compound: Cc1cc(C)c(CN2CCc3c(Br)cc(-c4c(C)nnn4C)c(Cl)c3C2=O)c(=O)[nH]1
inhibition in vivo at 240 mg/kg/day (KARPAS-422 [5]): 98%

Drug metabolism [16]: Metabolite_Detected
Drug uptake [17]: Not Active
Cp [18]: < 1 ng/mL
solubility [22]: 21600 µM
Drug metabolism [23]: Dose-dependent effect
Compound: Cc1cc(C)n(COP(=O)(O)O)c(=O)c1CN1CCc2c(Br)cc(-c3c(C)nnn3C)c(Cl)c2C1=O
Stabilty [12]: 8 h
Stabilty [13]: 8 h
inhibition in vivo at 240 mg/kg/day (KARPAS-422 [14]): 121%
inhibition in vivo at 120 mg/kg/day (KARPAS-422 [15]): 59%
TGI (KARPAS-422 [19]): Dose-dependent effect
TGI (KARPAS-422 [20]): Active
inhibition in vivo at 60 mg/kg/day (KARPAS-422 [21]): 37%
TGI (KARPAS-422 [24]): Active
